Assay results as given in US20210114975A1, “THERAPEUTIC COMPOUND AND METHODS” (Regents of the University of Minnesota, priority 2019, published 2021).

Legend:
Type in all cases: cell-based
[1] = system: 4T1 breast cancer cell line; test: Inhibition of pyruvate-driven respiration in permeabilized cells (Seahorse XFe96); conditions: varying concentrations
[2] = system: MCT4 expressing MDA-MB-231 cell line; test: Glycolysis stress test (Seahorse XFe96); conditions: 100, 50 and 30 μM, vs DMSO control
Description: (§1) The metabolic profile of compound 1 was evaluated via mitochondrial stress test (MST) and glycolytic stress test (GST) on MCT4 expressing MDA-MB-231 and MCT1 expressing WiDr cell lines using Seahorse XFe96® analyzer (FIGS. 1A and 1B). 20,000 cells/well were seeded in 96-well microplates. MST was performed according to the manufacturer's protocol. The mitochondrial parameters: maximal respiration, ATP production, proton leak and spare respiratory capacity were calculated using wave software. DMSO was used as the negative control. A concentration study was performed in MDA-MB-231 cell line using compound 1 at 100, 50 and 30 μM concentrations. […] GST was also performed according to the manufacturer's protocol. The glycolytic parameters: glycolysis, glycolytic capacity, and glycolytic reserve were calculated using wave software, with DMSO as a negative control. In this case also, a concentration study was carried out at 100, 50 and 30 μM in MDA-MB-231 cell line.

[3] = system: MCT1 expressing WiDr cell line; test: Mitochondrial stress test (Seahorse XFe96); conditions: vs DMSO control
Description: as §1

[4] = system: MCT4 expressing MDA-MB-231 cell line; test: Mitochondrial stress test (Seahorse XFe96); conditions: 100, 50 and 30 μM, vs DMSO control
Description: as §1

SMILES | oxygen consumption rate (OCR) after compound injection ([1]; intact 4T1 cells, before rPFO) | inhibition of pyruvate-driven respiration ([1]; rPFO-permeabilized 4T1 cells, FCCP-stimulated pyruvate/malate/DCA) | glycolytic capacity [2] | glycolytic reserve [2] | ATP production [3] | maximal respiration [3] | spare respiratory capacity [3] | ATP production [4] | maximal respiration [4] | spare respiratory capacity [4]
COc1cc(N(c2ccc(F)cc2)c2ccc(F)cc2)ccc1/C=C(\C#N)C(=O)O [Compound 2, (E)-3-(4-(bis(4-fluorophenyl)amino)-2-methoxyphenyl)-2-cyanoacrylic Acid] | Acute decreases in OCR were observed | inhibited pyruvate-driven respiration in permeabilized cells in a dose dependent fashion |  |  |  |  |  |  |  | 
N#C/C(=C\c1ccc(N(c2ccc(F)cc2)c2ccc(F)cc2)cc1)C(=O)O [Compound 1, (E)-3-(4-(bis(4-fluorophenyl)amino)phenyl)-2-cyanoacrylic Acid] |  |  | significantly decreased | significantly decreased | significantly decreased | significantly decreased | significantly decreased | significantly decreased | significantly decreased | significantly decreased
